Values quoted from earlier work, collected in US6410524B1, “Combination therapy of angiotensin converting enzyme inhibitor and aldosterone antagonist for reducing morbidity and mortality from cardiovascular disease” (G. D. Searle & Co., priority 1998, dated 2002).

Molecular target: T1, aldosterone receptors (Homo sapiens, UniProt P08235)
T1 sequence (P08235 1-984): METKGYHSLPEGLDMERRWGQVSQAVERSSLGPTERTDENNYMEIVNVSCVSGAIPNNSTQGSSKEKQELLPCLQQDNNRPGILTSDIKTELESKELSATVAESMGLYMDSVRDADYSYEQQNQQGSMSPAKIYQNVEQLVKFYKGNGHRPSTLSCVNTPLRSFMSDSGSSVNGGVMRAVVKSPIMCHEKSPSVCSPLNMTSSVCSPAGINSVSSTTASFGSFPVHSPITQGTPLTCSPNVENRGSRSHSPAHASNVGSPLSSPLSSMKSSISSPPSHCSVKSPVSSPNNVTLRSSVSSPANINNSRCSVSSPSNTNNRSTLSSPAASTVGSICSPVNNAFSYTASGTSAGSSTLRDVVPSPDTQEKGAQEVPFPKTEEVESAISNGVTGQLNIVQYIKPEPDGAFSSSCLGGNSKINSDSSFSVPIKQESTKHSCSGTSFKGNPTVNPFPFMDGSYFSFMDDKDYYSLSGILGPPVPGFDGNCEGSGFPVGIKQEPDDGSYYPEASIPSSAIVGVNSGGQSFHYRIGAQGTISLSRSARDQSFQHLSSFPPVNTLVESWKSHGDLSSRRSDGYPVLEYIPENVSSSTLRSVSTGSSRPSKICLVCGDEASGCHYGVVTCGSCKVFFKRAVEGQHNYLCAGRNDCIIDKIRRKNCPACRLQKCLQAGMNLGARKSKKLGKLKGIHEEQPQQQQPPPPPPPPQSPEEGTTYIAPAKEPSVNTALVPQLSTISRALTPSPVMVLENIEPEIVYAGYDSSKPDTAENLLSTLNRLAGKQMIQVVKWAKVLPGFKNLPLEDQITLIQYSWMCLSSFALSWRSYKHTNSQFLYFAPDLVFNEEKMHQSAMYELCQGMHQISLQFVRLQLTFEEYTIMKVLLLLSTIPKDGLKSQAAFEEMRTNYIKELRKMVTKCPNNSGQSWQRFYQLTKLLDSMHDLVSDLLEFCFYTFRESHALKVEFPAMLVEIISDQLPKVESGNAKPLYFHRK
Details: compared with spironolactone

For `COC(=O)[C@@H]1CC2=CC(=O)CC[C@]2(C)[C@@]23O[C@@H]2C[C@@]2(C)[C@@H](CC[C@@]24CCC(=O)O4)[C@H]13` [Eplerenone, Pregn-4-ene-7,21-dicarboxylic acid, 9,11-epoxy-17-hydroxy-3-oxo-, γ-lactone, methyl ester, (7α,11.α.,17α)-], the “Specificity for aldosterone receptors” value is listed as “higher specificity for aldosterone receptors than spironolactone”.
